Among the data in ChEMBL document CHEMBL4742394, “3-(aryl or heteroaryl) methyleneindolin-2-one derivatives as inhibitors of cancer stem cell pathway kinases for the treatment of cancer” (2019) are inhibition, Activity and IC50 values, retold here.

The pIC50 is the negative decadic logarithm of the IC50, by convention in mol/L.

Each structure is given as a SMILES string. pIC50: −log10 of the molar value. Calls of active or inactive are those of the source. No cut-off for these calls is given here.

For one assay, the species on record is Homo sapiens. Put plainly: Inhibition of ERK phosphorylation (unknown origin) incubated for 6 hrs by Western blot analysis based cell based assay. A general note: A western blot detects proteins with antibodies after separation by electrophoresis.
The target of assay [1] is Small ribosomal subunit protein eS6 (Homo sapiens) (UniProt P62753). The assay can be described thus: Inhibition of RPS6 phosphorylation (unknown origin) incubated for 6 hrs by Western blot analysis based cell based assay.
For assay [2] the target is unchanged. Put plainly: Inhibition of RPS6 phosphorylation in human HeLa cells assessed as Ser235/236 phosphorylation level at 5 uM incubated for 6 hrs. The assay is classed as cell-based. More on the design: scale not given: the % may be the effect or the level left.
Assay [3] shares this target. The assay can be described thus: Inhibition of RPS6 phosphorylation in human HeLa cells assessed as Ser240/244 phosphorylation level at 5 uM incubated for 6 hrs. It is filed as cell-based. On the set-up: scale not given: the % may be the effect or the level left.
In assay [4] the test system is FaDu. The assay can be described thus: Growth inhibition of human FaDu cells incubated for 72 hrs by cell-titer Glo luminescence assay. The assay is classed as functional, cell-based.
For assay [5], the system named is FaDu. The assay can be described thus: Growth inhibition of human FaDu cancer stem cells incubated for 72 hrs by cell-titer Glo luminescence assay. The assay is classed as functional, cell-based.

Turning to `CCNC(=O)c1c(C)[nH]c(/C=C2\C(=O)Nc3ccc(-c4csc(-c5ccccc5)n4)cc32)c1C`, the inhibition result (in the assay listed under Homo sapiens; in assay [1]) was “Active” throughout. Turning to `CCN(CC)CCNC(=O)c1c(C)[nH]c(/C=C2\C(=O)Nc3ccc(-c4n[nH]c5ccccc45)cc32)c1C`, the Activity in assay [2] is 4%; in assay [3], 26%.

On to `Cc1cc(C)c(/C=C2\C(=O)Nc3ccc(-c4csc(C5CCNCC5)n4)cc32)[nH]1`, for which the Activity in assay [2] and in assay [3] was 76% in each case. For `Cc1cc(C)c(/C=C2\C(=O)Nc3ccc(-c4ccc(C=O)cc4)cc32)[nH]1`, the inhibition entry in the assay listed under Homo sapiens is “Active”. In the assay on FaDu [4], `Cc1ccc(-c2nc(-c3ccc4c(c3)/C(=C/c3[nH]c(C)c(C(=O)N5CCN(C)CC5)c3C)C(=O)N4)cs2)cc1` had a pIC50 of 4.63. As for `COc1cccnc1-c1ccc2c(c1)/C(=C/c1[nH]c(C)cc1C)C(=O)N2`, the inhibition entry in the assay listed under Homo sapiens is “Active”. For the same compound, in the assay on FaDu [5], the negative logarithm of the IC50 (pIC50) was 5.60. In the case of `CCOC(=O)CCc1ccc(-c2nc(-c3ccc4c(c3)/C(=C/c3[nH]c(C)c(C(=O)NCCN(CC)CC)c3C)C(=O)N4)cs2)cc1`, the inhibition entry in the assay filed under Homo sapiens was “Active”.
